Experimental data reported in US20220264878A1, “HERBICIDAL COMPOSITION CONTAINING R-TYPE PYRIDYLOXY CARBOXYLIC ACID DERIVATIVE AND USE THEREOF” (Qingdao Kingagroot Chemical Compound Co., Ltd., priority 2019, published 2022).

Legend:
Assay type in all cases: in vivo
Conyza Canadensis [1] = assay: Post-emergence foliage spray on Conyza Canadensis with a height of 10 cm, fresh weight inhibition (Tables 207-216; 24 days); details: 24 days after treatment
Protocol: The above weeds were cultivated by a pot culture method. […] Full and uniform weed seeds were selected, soaked in warm water at 25° C. for 6 hours, and germinated in a 28° C. biochemical incubator (darkness). The weed seeds that had just germinatedwere evenly placed on the surface of the soil and then covered with 0.5-1 cm soil according to the sizes of seeds.
The technical materials were all dissolved in acetone, and diluted with an aqueous solution containing 0.1% emulsifier Tween-80. The dilution is performed as required.
A ratio of the active ingredient A to the active ingredient B and amounts thereof in each group depends on the characteristics and toxicity of the two agents, as well as the main application purpose of a corresponding formulation. Based on the pre-tests in this study, the dosage of the active ingredient A and B applied alone and in combination were shown in the tables. Water containing the solvent and emulsifier same with the above groups but free of the agents was used as a blank control.
In the stage of weeds with 6˜8 leaves, the weeds were thinned out to maintain 3 weeds per pot and 30 weeds for each treatment, then continued to be cultured to Conyza Canadensis with a height of 10 cm, and treated.
The well-cultured weeds were evenly placed on a platform with an area of 0.5 m^2, and a solution of agents was sprayed on the stems and leaves thereof by the 3WP-2000-type walking spray tower at a dosage of 450 kg/ha and at a spray pressure of 0.3 MPa. After all the solution was sprayed, the valve was closed. After 30 seconds, the door of the spray tower was opened, and the nutritional bowl was taken out. Then the valve was opened, and the spray tube was cleaned by spraying 50 ml of water.
A pot-culture method was employed. For the cultivation of weeds, please refer to the Section 1.1), and “Pesticide guidelines for laboratory bioactivity tests—herbicides”. As to a method for applying agents, please refer to the section 2.3.2), that is, a foliage treatment was employed. After the treatment, the weeds were routinely cultured in a greenhouse.
A method for investigating absolute number was employed, wherein whole seedlings of survival weeds were cut off with a blade along the soil surface, and the fresh weight of the weeds was weighed with an analytical balance. For dead weeds, the fresh weight thereof was zero.
Wherein, in the formula, X represented the fresh weight inhibition rate of the active ingredient A in a dosage of P, and Y represented the fresh weight inhibition rate of the active ingredient B in a dosage of Q.

Conyza Canadensis [2] = assay: Post-emergence foliage spray, pot culture, fresh weight inhibition (Tables 1-48, 51-98, 101-148; 24 days)
Outline: (§1)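 Greenhouse pot plants (20–30 °C, natural light, 57–72% RH) were sprayed once on foliage at 450 kg/ha and 0.3 MPa, at the 5–6-leaf (grass) or 6–7-leaf (broadleaf) stage. Compounds were in acetone diluted with 0.1% Tween-80 water. Surviving shoots were weighed at 24 days; dead plants counted as zero.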

Setaria viridis = assay: as above; details: A = A2 alone, g a.i./ha: r10 60, r11 60, r12 30, r13 30
Outline: as §1

Capsella bursa-pastoris = assay: as above
Outline: as §1

Setaria glauca = assay: as above; details: Table 84
Outline: as §1

Abutilon theophrasti = assay: as above
Outline: as §1

Alopecurus japonicus = assay: as above
Outline: as §1

Sonchus arvensis = assay: as above
Outline: as §1

C[C@@H](Oc1nc(F)c(Cl)c(N)c1Cl)C(=O)OCC1CCCO1 (stereo partly drawn) [Compound A2]
Control effect (%) of A applied alone in corresponding dose (Conyza Canadensis [1]; A alone 60 g a.i./ha): 22.6%
Control effect (%) of A applied alone in corresponding dose (Conyza Canadensis [1]; A alone 120 g a.i./ha): 47.9%
Control effect (%) of A applied alone in corresponding dose (Conyza Canadensis [2]; A2 75 g a.i./ha): 36.7%
Control effect (%) of A applied alone in corresponding dose (Conyza Canadensis [2]; A2 150 g a.i./ha): 57.2%
Control effect (%) of A applied alone in corresponding dose (Setaria viridis; A2 alone at 30 g a.i./ha): 32.7%
Control effect (%) of A applied alone in corresponding dose (Setaria viridis; A2 alone at 60 g a.i./ha): 56.3%

C[C@@H](Oc1nc(F)c(Cl)c(N)c1Cl)C(=O)O [Compound A1]
Control effect (%) of A applied alone in corresponding dose (Capsella bursa-pastoris; A1 7.5 g a.i./ha): 36.2%
Control effect (%) of A applied alone in corresponding dose (Capsella bursa-pastoris; A1 15 g a.i./ha): 75.9%
Control effect (%) of A applied alone in corresponding dose (Setaria glauca; 30 g a.i./ha): 34.7%
Control effect (%) of A applied alone in corresponding dose (Setaria glauca; 60 g a.i./ha): 57.6%
Control effect (%) of A applied alone in corresponding dose (Abutilon theophrasti; A1 7.5 g a.i./ha): 44.3%
Control effect (%) of A applied alone in corresponding dose (Abutilon theophrasti; A1 15 g a.i./ha): 79.6%
Control effect (%) of A applied alone in corresponding dose (Alopecurus japonicus; A1 7.5 g a.i./ha): 25.6%
Control effect (%) of A applied alone in corresponding dose (Alopecurus japonicus; A1 15 g a.i./ha): 48.1%
Control effect (%) of A applied alone in corresponding dose (Alopecurus japonicus; A1 75 g a.i./ha): 25.6%
Control effect (%) of A applied alone in corresponding dose (Alopecurus japonicus; A1 150 g a.i./ha): 48.1%
Control effect (%) of A applied alone in corresponding dose (Sonchus arvensis; A1 30 g a.i./ha): 33.3%
Control effect (%) of A applied alone in corresponding dose (Sonchus arvensis; A1 60 g a.i./ha): 70.7%
